Test results taken from ChEMBL document CHEMBL5725952, “Imidazopyridine macrocycles as inhibitors of human immunodeficiency virus replication” (2018).

Experiment: Inhibition of HIV Replication: A recombinant NL-RLuc proviral clone was constructed in which a section of the nef gene from NL4-3 was replaced with the Renilla Luciferase gene. This virus is fully infectious and can undergo multiple cycles of replication in cell culture. In addition, the luciferous reporter provides a simple and easy method for quantitating the extent of virus growth and consequently, the antiviral activity of test compounds. The plasmid pNLRLuc contains the proviral NL-Rluc DNA cloned into pUC18 at the PvuII site. The NL-RLuc virus was prepared by transfection of 293T cells with the plasmid pNLRLuc. Transfections were performed using the LipofectAMINE PLUS kit from Invitrogen (Carlsbad, Calif.) according to the manufacturer and the virus generated was titered in MT-2 cells. For susceptibility analyses, the titrated virus was used to infect MT-2 cells in the presence of compound, and after 5 days of incubation, cells were processed and quantitated for virus growth by the amount of expressed luciferase. Assay media was RPMI 1640 supplemented with 10% heat inactivated fetal bovine serum (FBS), 100 units/ml penicillin G/100 units/ml streptomycin, 10 mM HEPES buffer pH 7.55 and 2 mM L-glutamine. The results from at least 2 experiments were used to calculate the EC50 values. Luciferase was quantitated using the Dual Luciferase kit from Promega (Madison, Wis.). […]
Format: cell-based
Conditions: HEK-293T

`Cc1c([C@@H](OC(C)(C)C)C(=O)O)c2n3cc(nc3c1C)-c1cccc(c1)-c1cc(F)c(F)cc1O[C@@H](C)COCCOC1(C)CCN2CC1` gave an EC50 of 550 nM.
`Cc1c([C@H](OC(C)(C)C)C(=O)O)c2n3cc(nc3c1C)-c1cccc(c1)-c1cc(F)c(F)cc1O[C@@H](C)COCCOC1(C)CCN2CC1` gave an EC50 of less than 100 nM.
